Test results from the NIST ThermoML archive (doi:10.1021/je060203o).
Numbers after ± are expanded uncertainties.

Conditions: Liquid; for speed of sound: Pulse-echo method; for mass density: Vibrating tube method

CCCCCn1cc[n+](C)c1.O=S(=O)([N-]S(=O)(=O)C(F)(F)F)C(F)(F)F
Conditions	mass density [kg/m3]	speed of sound [m/s]
288.15 K, 500 kPa	–	1255.5 ± 3.1
288.15 K, 3500 kPa	–	1266 ± 3.1
288.15 K, 7000 kPa	–	1278.1 ± 3.1
288.15 K, 10000 kPa	–	1288.3 ± 3.1
288.15 K, 13500 kPa	–	1299.9 ± 3.1
288.15 K, 16990 kPa	–	1311.2 ± 3.1
288.15 K, 20000 kPa	–	1320.7 ± 3.1
288.15 K, 30000 kPa	–	1351.7 ± 3.2
288.15 K, 40000 kPa	–	1380.9 ± 3.2
288.15 K, 50000 kPa	–	1409 ± 3.2
288.15 K, 60000 kPa	–	1435.6 ± 3.2
288.15 K, 70000 kPa	–	1461.2 ± 3.2
288.15 K, 80000 kPa	–	1486 ± 3.2
288.15 K, 90000 kPa	–	1509.9 ± 3.2
288.15 K, 100000 kPa	–	1533 ± 3.2
288.15 K, 112500 kPa	–	1560.9 ± 3.2
288.15 K, 125000 kPa	–	1587.9 ± 3.2
288.15 K, 137510 kPa	–	1613.5 ± 3.2
288.15 K, 150000 kPa	–	1637.8 ± 3.2
298.15 K, 100 kPa	1404.45 ± 2.3	–
298.15 K, 500 kPa	–	1232.1 ± 3.1
298.15 K, 1830 kPa	1405.67 ± 2.3	–
298.15 K, 3500 kPa	–	1242.7 ± 3.1
298.15 K, 7000 kPa	–	1255 ± 3.1
298.15 K, 10000 kPa	–	1265.5 ± 3.1
298.15 K, 10020 kPa	1411.85 ± 2.5	–
298.15 K, 13500 kPa	–	1277.3 ± 3.1
298.15 K, 14980 kPa	1415.45 ± 2.6	–
298.15 K, 16990 kPa	–	1288.9 ± 3.1
298.15 K, 19750 kPa	1418.8 ± 2.8	–
298.15 K, 20000 kPa	–	1298.6 ± 3.1
298.15 K, 25860 kPa	1422.94 ± 2.9	–
298.15 K, 30000 kPa	–	1330.5 ± 3.2
298.15 K, 31480 kPa	1426.64 ± 3	–
298.15 K, 37770 kPa	1430.64 ± 3.2	–
298.15 K, 40000 kPa	–	1360.4 ± 3.2
298.15 K, 44170 kPa	1434.54 ± 3.4	–
298.15 K, 50000 kPa	–	1388.9 ± 3.2
298.15 K, 50750 kPa	1438.46 ± 3.5	–
298.15 K, 59590 kPa	1443.56 ± 3.8	–
298.15 K, 60000 kPa	–	1415.9 ± 3.2
298.15 K, 70000 kPa	–	1441.9 ± 3.2
298.15 K, 80000 kPa	–	1467 ± 3.2
298.15 K, 90000 kPa	–	1491.1 ± 3.2
298.15 K, 100000 kPa	–	1514.5 ± 3.2
298.15 K, 112500 kPa	–	1542.6 ± 3.2
298.15 K, 125000 kPa	–	1569.7 ± 3.2
298.15 K, 137510 kPa	–	1595.7 ± 3.2
298.15 K, 150000 kPa	–	1620.3 ± 3.2
299.15 K, 100 kPa	1403.5 ± 2.3	–
299.15 K, 1830 kPa	1404.78 ± 2.3	–
299.15 K, 10020 kPa	1410.92 ± 2.5	–
299.15 K, 14980 kPa	1414.53 ± 2.6	–
299.15 K, 19750 kPa	1417.87 ± 2.8	–
299.15 K, 25860 kPa	1422.01 ± 2.9	–
299.15 K, 31480 kPa	1425.7 ± 3	–
299.15 K, 37770 kPa	1429.73 ± 3.2	–
299.15 K, 44170 kPa	1433.68 ± 3.4	–
299.15 K, 50750 kPa	1437.64 ± 3.5	–
299.15 K, 59590 kPa	1442.74 ± 3.8	–
300.15 K, 100 kPa	1402.62 ± 2.3	–
300.15 K, 1830 kPa	1403.85 ± 2.3	–
300.15 K, 10020 kPa	1410.01 ± 2.5	–
300.15 K, 14980 kPa	1413.57 ± 2.6	–
300.15 K, 19750 kPa	1416.91 ± 2.8	–
300.15 K, 25860 kPa	1421.12 ± 2.9	–
300.15 K, 31480 kPa	1424.81 ± 3	–
300.15 K, 37770 kPa	1428.87 ± 3.2	–
300.15 K, 44170 kPa	1432.84 ± 3.4	–
300.15 K, 50750 kPa	1436.83 ± 3.5	–
300.15 K, 59590 kPa	1441.99 ± 3.8	–
301.15 K, 100 kPa	1401.81 ± 2.3	–
301.15 K, 1830 kPa	1403.07 ± 2.3	–
301.15 K, 10020 kPa	1409.19 ± 2.5	–
301.15 K, 14980 kPa	1412.71 ± 2.6	–
301.15 K, 19750 kPa	1416.05 ± 2.8	–
301.15 K, 25860 kPa	1420.19 ± 2.9	–
301.15 K, 31480 kPa	1423.9 ± 3	–
301.15 K, 37770 kPa	1427.94 ± 3.2	–
301.15 K, 44170 kPa	1431.88 ± 3.4	–
301.15 K, 50750 kPa	1435.89 ± 3.5	–
301.15 K, 59590 kPa	1441.12 ± 3.7	–
302.15 K, 100 kPa	1400.89 ± 2.3	–
302.15 K, 1830 kPa	1402.16 ± 2.3	–
302.15 K, 10020 kPa	1408.28 ± 2.5	–
302.15 K, 14980 kPa	1411.85 ± 2.6	–
302.15 K, 19750 kPa	1415.2 ± 2.7	–
302.15 K, 25860 kPa	1419.36 ± 2.9	–
302.15 K, 31480 kPa	1423.08 ± 3	–
302.15 K, 37770 kPa	1427.17 ± 3.2	–
302.15 K, 44170 kPa	1431.17 ± 3.3	–
302.15 K, 50750 kPa	1435.18 ± 3.5	–
302.15 K, 59590 kPa	1440.42 ± 3.7	–
303.15 K, 100 kPa	1399.89 ± 2.3	–
303.15 K, 1830 kPa	1401.18 ± 2.3	–
303.15 K, 10020 kPa	1407.27 ± 2.5	–
303.15 K, 14980 kPa	1410.82 ± 2.6	–
303.15 K, 19750 kPa	1414.3 ± 2.7	–
303.15 K, 25860 kPa	1418.46 ± 2.9	–
303.15 K, 31480 kPa	1422.18 ± 3	–
303.15 K, 37770 kPa	1426.25 ± 3.2	–
303.15 K, 44170 kPa	1430.26 ± 3.3	–
303.15 K, 50750 kPa	1434.31 ± 3.5	–
303.15 K, 59590 kPa	1439.59 ± 3.7	–
308.15 K, 100 kPa	1395.34 ± 2.3	–
308.15 K, 500 kPa	–	1209.4 ± 3.1
308.15 K, 1830 kPa	1396.59 ± 2.3	–
308.15 K, 3500 kPa	–	1220.4 ± 3.1
308.15 K, 7000 kPa	–	1233.1 ± 3.1
308.15 K, 10000 kPa	–	1243.7 ± 3.1
308.15 K, 10020 kPa	1402.73 ± 2.5	–
308.15 K, 13500 kPa	–	1255.8 ± 3.1
308.15 K, 14980 kPa	1406.29 ± 2.6	–
308.15 K, 16990 kPa	–	1267.5 ± 3.1
308.15 K, 19750 kPa	1409.65 ± 2.7	–
308.15 K, 20000 kPa	–	1277.5 ± 3.1
308.15 K, 25860 kPa	1413.83 ± 2.9	–
308.15 K, 30000 kPa	–	1310 ± 3.2
308.15 K, 31480 kPa	1417.59 ± 3	–
308.15 K, 37770 kPa	1421.72 ± 3.1	–
308.15 K, 40000 kPa	–	1340.4 ± 3.2
308.15 K, 44170 kPa	1425.82 ± 3.3	–
308.15 K, 50000 kPa	–	1369.1 ± 3.2
308.15 K, 50750 kPa	1429.95 ± 3.5	–
308.15 K, 59590 kPa	1435.35 ± 3.7	–
308.15 K, 60000 kPa	–	1396.7 ± 3.2
308.15 K, 70000 kPa	–	1423.2 ± 3.2
308.15 K, 80000 kPa	–	1448.6 ± 3.2
308.15 K, 90000 kPa	–	1473 ± 3.2
308.15 K, 100000 kPa	–	1496.6 ± 3.2
308.15 K, 112500 kPa	–	1525.2 ± 3.2
308.15 K, 125000 kPa	–	1552.6 ± 3.2
308.15 K, 137510 kPa	–	1579 ± 3.2
308.15 K, 150000 kPa	–	1603.7 ± 3.2
313.15 K, 100 kPa	1390.55 ± 2.2	–
313.15 K, 1830 kPa	1391.88 ± 2.3	–
313.15 K, 10020 kPa	1397.99 ± 2.5	–
313.15 K, 14980 kPa	1401.57 ± 2.6	–
313.15 K, 19750 kPa	1404.95 ± 2.7	–
